The source of these data is paper PMC7329864, “Role of water in cyclooxygenase catalysis and design of anti-inflammatory agents targeting two sites of the enzyme” (Scientific Reports, 2020).

The target in data set [1] is T1, wt COX-2 (Homo sapiens, UniProt P35354).
T1 construct: purchased Cayman Chemical Co. item no; 560131
T1 sequence (P35354 18-604): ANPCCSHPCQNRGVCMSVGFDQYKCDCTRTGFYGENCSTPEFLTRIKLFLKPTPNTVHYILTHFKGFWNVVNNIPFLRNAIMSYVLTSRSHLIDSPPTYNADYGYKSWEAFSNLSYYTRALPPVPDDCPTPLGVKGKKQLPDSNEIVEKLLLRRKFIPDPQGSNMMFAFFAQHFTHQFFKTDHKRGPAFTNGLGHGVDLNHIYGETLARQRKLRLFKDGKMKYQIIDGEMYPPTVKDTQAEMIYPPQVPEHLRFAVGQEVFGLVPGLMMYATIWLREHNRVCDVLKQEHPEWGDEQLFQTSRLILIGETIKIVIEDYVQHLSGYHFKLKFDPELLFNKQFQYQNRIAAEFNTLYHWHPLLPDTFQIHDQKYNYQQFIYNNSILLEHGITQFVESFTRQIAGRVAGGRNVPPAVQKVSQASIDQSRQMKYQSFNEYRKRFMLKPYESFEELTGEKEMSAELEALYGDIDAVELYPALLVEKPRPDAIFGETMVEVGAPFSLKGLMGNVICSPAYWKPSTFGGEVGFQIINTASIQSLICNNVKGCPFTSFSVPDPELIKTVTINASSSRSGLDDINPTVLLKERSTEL
Briefly: COX inhibitory enzyme immunoassay (COX-2). The class given is biochemical. The protocol: All the compounds of Fig. 9 were screened for COX-1/2 inhibitory activity in triplicate at 10^–4–10^–8 M concentration by performing enzyme immunoassays. The activity of the compounds was quantified in terms of amount of prostaglandins produced by the enzymes in the presence of different concentrations of the compound.
For studying the COX-1, COX-2 inhibitory activities of the compounds, various reagents were prepared as per the protocol of the assays. The compounds were screened in triplicate at 10^–4–10^–8 M concentration using the procedure as described in the previous report.

Data set [2] deals with T2, COX-2 (Homo sapiens, UniProt P35354).
T2 sequence (P35354 18-604): T1 sequence (P35354 18-604)
Description: UV-Vis and fluorescence studies of interaction with COX-2. The class given is binding. The source says: In order to support in-silico experiments, the interactions of 1, 13d and 15d with COX-2 were checked with UV–vis and fluorescence spectral techniques. […] The appearance of level-off in the visible region (500–700 nm) was attributed to the Mie scattering due to the formation of aggregates. […] Corroborating the results of molecular modelling studies, the changes in the UV–Vis spectra as well as the fluorescence spectrum of the compound on addition of COX-2 probably occurred due to the HOMO–LUMO interactions between 1 and the enzyme (Figure S26). The linear Stern–Volmer plot of decrease in fluorescence intensity at 567 nm on increasing COX-2 concentration gave Stern–Volmer constant Ksv 3.30 × 10^4 M^-1. The detection limit of the compound for COX-2 was 0.02 nM (Figure S26C,D).
In order to support in-silico experiments, the interactions of 1, 13d and 15d with COX-2 were checked with UV-vis and fluorescence spectral techniques. […] The appearance of level-off in the visible region (500-700 nm) was attributed to the Mie scattering due to the formation of aggregates. […] Corroborating the results of molecular modelling studies, the changes in the UV-Vis spectra as well as the fluorescence spectrum of the compound on addition of COX-2 probably occurred due to the HOMO-LUMO interactions between 1 and the enzyme (Figure S27). The linear Stern-Volmer plot of decrease in fluorescence intensity at 567 nm on increasing COX-2 concentration gave Stern-Volmer constant Ksv 3.30x10^4 M^-1. The detection limit of the compound for COX-2 was 0.02 nM (Figure 27C, 27D).

A short description of data set [3]: In-vivo pharmacokinetic studies. The protocol:
Acute toxicity studies of 1 were carried out at 3 dose levels of 50 mg Kg^−1, 300 mg Kg^−1 and 2000 mg Kg^−1 by periodic monitoring for the first 24 h and daily monitoring for 14 days[56]. […] A few jumping movements were also observed. However, all these behaviours subsided after 60 min. […] Therefore, complying with the design and the results of in vitro studies, the in vivo experiments were gestured with the emergence of a new category of anti-inflammatory agents.
In-vivo Pharmacokinetic studies were performed as per the previously reported protocol.

pIC50: −log10 of the molar value. Read-outs that look alike come from different tables or passages of the source.

One may read the pIC50 as the IC50 on a negative log10 scale, so that one unit is a factor of ten. For orientation: Cmax means the maximum level reached in the sampled fluid or tissue. What is called Tmax is the time at which the peak concentration occurs. In turn, `O=C1NC(=O)C(=Cc2cn(CCCCCCn3c4ccccc4c(=O)c4ccccc43)c3ccccc23)C(=O)N1` [Compound 1] had a pIC50 in data set [1] (enzyme immunoassay, screened at 10^–4–10^–8 M, average of 3 experiments, SD ± 0.5 µM) of 7.22. For the same molecule, the “SI (IC50(COX-1)/IC50 (COX-2)” value in data set [1] (selectivity index COX-1/COX-2) is listed as 1,000. Also, the “decrease in fluorescence intensity (quenching) in the presence of COX-2” value in data set [2] (addition of COX-2 in Tris–HCl buffer pH 7.25 to solution of compound) is “significant quenching”. The “detection limit of the compound for COX-2” value in data set [2] (fluorescence intensity at 567 nm vs [COX-2], Tris–HCl buffer pH 7.25) is listed as 0.02 nM. Besides, the “Stern–Volmer constant Ksv” value in data set [2] (fluorescence quenching at 567 nm by COX-2, 0.5 µM compound, Tris–HCl buffer pH 7.25) came out at 33000 M⁻¹. The figures for the Cmax in data set [3] (Animal 1), in data set [3] (Animal 2) and in data set [3] (Animal 3) were 3150 nM, 2860 nM and 2600 nM, respectively. The Tmax in data set [3] (Animal 1) is 0.5 h; in data set [3] (Animal 2), 0.25 h; in data set [3] (Animal 3), 0.5 h; in data set [3] (Mean) it was 0.417 h. Further, the AUC(0-t) was 21.4 µM·h in data set [3] (Animal 1, read-out: AUC(0–1440 min) (converted)); 19.7 µM·h in data set [3] (Animal 2, read-out: AUC(0–1440 min) (converted)); 20.2 µM·h in data set [3] (Animal 3, read-out: AUC(0–1440 min) (converted)); 20.4 µM·h in data set [3] (Mean, read-out: AUC(0–1440 min) (converted)). Moreover, the half-life in data set [3] (Animal 1, read-out: T1/2) was 11.2 h; in data set [3] (Animal 2, read-out: T1/2), 6.96 h; in data set [3] (Animal 3, read-out: T1/2), 8.68 h; in data set [3] (Mean, read-out: T1/2), 8.95 h; in data set [3] (read-out: half life (T1/2) (converted)) it was ~9 h.
